Laboratory results as given in patent publication US4465687A, “Thienamycin derivatives as anti-inflammatory agents” (Merck & Co., Inc., priority 1982, dated 1984).

Molecular target: T1, Human Polymorphonuclear Leukocyte Elastase (Homo sapiens, UniProt P08246)
T1 construct: Crude extract of human polymorphonuclear leukocytes (PMN) containing elastase activity; endogenous in cells; host or cells: human polymorphonuclear leukocytes (crude extract)
T1 sequence (P08246 30-247 limits assumed): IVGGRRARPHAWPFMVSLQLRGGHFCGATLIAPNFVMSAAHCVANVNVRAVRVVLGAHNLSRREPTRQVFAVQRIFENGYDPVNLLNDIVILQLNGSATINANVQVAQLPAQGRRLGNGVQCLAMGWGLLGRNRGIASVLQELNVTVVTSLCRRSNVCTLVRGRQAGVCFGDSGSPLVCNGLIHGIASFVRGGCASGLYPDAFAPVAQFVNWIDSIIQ
Assay: Inhibition of human polymorphonuclear leukocyte elastase via hydrolysis of N-t-Boc-alanyl-alanyl-prolylalanine-p-nitroanilide
Assay type: biochemical
Conditions: measured within 2 minutes, crude PMN extract; for inhibition at 1 µg/mL: Conc. of compound 1 μg/ml; for inhibition at 5 µg/mL: Conc. of compound 5 μg/ml; for inhibition at 20 µg/mL: Conc. of compound 20 μg/ml; for inhibition at 50 µg/mL: Conc. of compound 50 μg/ml; for inhibition at 2 µg/mL: Conc. of compound 2 μg/ml
Procedure: Protocol--Enzyme Assays for the Inhibition of Human Polymorphonuclear Leukocyte Elastase Via Hydrolysis of N-t-Boc-alanyl-alanyl-prolylalanine-p-nitroanilide
0.05M TES (N-tris[hydroxymethyl]methyl-2-amino-ethanesulfonic acid) Buffer, pH 7.5.
0.2 mM N-t-Boc-alanyl-alanyl-Prolyl-Alanine-p-nitroanilide (Boc-AAPAN).
To prepare substrate, the solid (m.w. 550) was first dissolved in 10.0 ml DMSO. Buffer at pH 7.5 was then added to a final volume of 100 ml.
Crude extract of human polymorphonuclear leukocytes (PMN) containing elastase activity.
Inhibitors (thienamycin esters) to be treated dissolved in DMSO just before use.
To 1.0 ml of 0.2 mM Boc-AAPAN in a cuvette, 0.01-0.1 ml of DMSO with or without inhibitor was added. After mixing, a measurement was taken at 410 mμ to detect any spontaneous hydrolysis due to presence of test compound. 0.05 Milliliters of PMN extract was then added and the ΔOD/min at 410 mμ was measured and recorded. Beckman model 35 spectrophotometer was used.
The elastase activity in the crude PMN extract may vary from one preparation to another. A control of each new batch is run, and the volume added in the assay procedure is adjusted according to activity.

| inhibition at 50 µg/mL | SMILES | inhibition at 1 µg/mL | inhibition at 5 µg/mL | inhibition at 20 µg/mL | inhibition at 2 µg/mL | inhibition at 0.5 µg/mL (Conc. of compound .5 μg/ml) | inhibition at 10 µg/mL (Conc. of compound 10 μg/ml) | inhibition at 25 µg/mL (Conc. of compound 25 μg/ml) |
| --- | --- | --- | --- | --- | --- | --- | --- | --- |
| 100% | CC(O)[C@H]1C(=O)N2C(C(=O)OCc3ccc([N+](=O)[O-])cc3)=C(SCCNC(=O)Cc3ccccc3)C[C@H]12 (stereo partly drawn) [COCH2 C6 H5 / H / H / PNB] | 47% | 84% | 95% | – | – | – | – |
| – | CC(O)[C@H]1C(=O)N2C(C(=O)OCc3ccc([N+](=O)[O-])cc3)=C(SCCN3C(=O)c4ccccc4C3=O)C[C@H]12 (stereo partly drawn) [phthaloyl / H / PNB] | 76% | 93% | 100% | 86% | 50% | – | – |
| 89% | CCCC(=O)NCCSC1=C(C(=O)OCc2ccc([N+](=O)[O-])cc2)N2C(=O)[C@H]([C@@H](C)OC(C)=O)[C@H]2C1 [COCH2 C2 H5 / H / Ac / PNB] | – | 31% | 69% | – | – | – | – |
| – | CC(O)[C@H]1C(=O)N2C(C(=O)OCc3ccccc3)=C(SCCN3C(=O)c4ccccc4C3=O)C[C@H]12 (stereo partly drawn) [phthaloyl / H / benzyl] | 39% | 89% | 100% | 56% | – | – | – |

| SMILES | inhibition at 50 µg/mL | inhibition at 1 µg/mL | inhibition at 5 µg/mL | inhibition at 20 µg/mL | inhibition at 2 µg/mL | inhibition at 0.5 µg/mL (Conc. of compound .5 μg/ml) | inhibition at 10 µg/mL (Conc. of compound 10 μg/ml) | inhibition at 25 µg/mL (Conc. of compound 25 μg/ml) |
| --- | --- | --- | --- | --- | --- | --- | --- | --- |
| CC(O[Si](C)(C)C)[C@H]1C(=O)N2C(C(=O)OCc3ccc([N+](=O)[O-])cc3)=C(SCCN3C(=O)c4ccccc4C3=O)C[C@H]12 (stereo partly drawn) [phthaloyl / TMS / PNB] | 96% | 38% | – | – | 83% | – | 95% | 95% |
